Measured values reported in ChEMBL document CHEMBL3046340, “In silico studies on 2,3-dihydro-1,5-benzothiazepines as cholinesterase inhibitors” (Med Chem Res, 2012).

Legend:
[1] = molecular target: Cholinesterase (Homo sapiens, UniProt P06276); assay: Inhibition of BChE (unknown origin) using butyrylthiocholine chloride as substrate preincubated for 15 min
[2] = molecular target: Acetylcholinesterase (Electrophorus electricus, UniProt O42275); assay: Inhibition of Electrophorus electricus (electric eel) acetylcholinesterase (AChE) using acetylthiocholine iodide as substrate preincubated for 15 min
Acetylcholinesterase, sequence (O42275 whole entry): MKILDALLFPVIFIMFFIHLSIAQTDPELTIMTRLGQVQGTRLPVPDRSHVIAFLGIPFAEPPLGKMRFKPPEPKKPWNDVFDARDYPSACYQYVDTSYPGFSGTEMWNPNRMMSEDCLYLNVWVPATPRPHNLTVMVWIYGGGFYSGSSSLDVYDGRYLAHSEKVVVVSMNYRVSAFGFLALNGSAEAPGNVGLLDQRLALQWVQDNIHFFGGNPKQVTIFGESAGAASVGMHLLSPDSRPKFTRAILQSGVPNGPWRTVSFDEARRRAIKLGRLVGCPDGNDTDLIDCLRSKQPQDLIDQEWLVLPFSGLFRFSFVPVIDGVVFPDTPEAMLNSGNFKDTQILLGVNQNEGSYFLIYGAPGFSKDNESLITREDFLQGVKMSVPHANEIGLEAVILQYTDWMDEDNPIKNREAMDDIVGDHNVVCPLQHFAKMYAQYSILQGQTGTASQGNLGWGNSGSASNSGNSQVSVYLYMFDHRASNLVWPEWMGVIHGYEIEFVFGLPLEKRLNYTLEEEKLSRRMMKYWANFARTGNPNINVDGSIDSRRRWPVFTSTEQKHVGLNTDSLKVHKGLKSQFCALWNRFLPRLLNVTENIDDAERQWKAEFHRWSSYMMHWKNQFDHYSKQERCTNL

Cholinesterase, sequence (P06276 whole entry): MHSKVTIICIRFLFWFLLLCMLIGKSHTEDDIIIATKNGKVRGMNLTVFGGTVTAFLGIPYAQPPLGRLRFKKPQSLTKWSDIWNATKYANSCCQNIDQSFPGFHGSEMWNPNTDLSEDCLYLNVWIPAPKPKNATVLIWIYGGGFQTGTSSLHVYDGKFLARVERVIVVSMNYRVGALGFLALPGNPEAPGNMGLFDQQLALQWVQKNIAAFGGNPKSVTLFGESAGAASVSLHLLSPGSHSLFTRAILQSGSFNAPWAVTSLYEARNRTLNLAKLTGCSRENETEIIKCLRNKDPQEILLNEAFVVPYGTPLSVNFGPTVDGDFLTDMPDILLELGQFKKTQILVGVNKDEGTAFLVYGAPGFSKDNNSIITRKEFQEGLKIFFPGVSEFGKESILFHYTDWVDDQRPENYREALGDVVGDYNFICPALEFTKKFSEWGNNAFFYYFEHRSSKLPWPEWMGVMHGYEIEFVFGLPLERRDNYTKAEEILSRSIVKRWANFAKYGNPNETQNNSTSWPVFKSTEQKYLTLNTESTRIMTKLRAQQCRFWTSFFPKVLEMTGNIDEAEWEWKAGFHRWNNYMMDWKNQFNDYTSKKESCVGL

Row | Compound | IC50 ([1]; read-out: IC50) [µM] | IC50 ([2]; read-out: IC50) [µM] | IC50 [1] | IC50 [2]
1 | O=[N+]([O-])c1ccc(C2CC(c3ccccc3)=Nc3ccccc3S2)cc1 (configuration not stated) | 60 | 102 | – | –
2 | c1ccc(C2=Nc3ccccc3SC(c3ccccc3)C2)cc1 (configuration not stated) | – | – | Not Active | Not Active
3 | Cc1ccc(C2CC(c3ccccc3)=Nc3ccccc3S2)cc1 (configuration not stated) | – | – | Not Active | Not Active
4 | COc1ccc(C2CC(c3ccccc3)=Nc3ccccc3S2)cc1OC (configuration not stated) | – | – | Not Active | Not Active
5 | Oc1ccccc1C1=Nc2ccccc2SC(c2ccccc2)C1 (configuration not stated) | – | – | Not Active | Not Active
6 | Oc1ccccc1C1=Nc2ccccc2SC(c2ccc(Cl)cc2)C1 (configuration not stated) | – | – | Not Active | Not Active
7 | Oc1ccccc1C1=Nc2ccccc2SC(c2ccc(F)cc2)C1 (configuration not stated) | – | – | Not Active | Not Active
8 | COc1cccc(C2CC(c3ccccc3O)=Nc3ccccc3S2)c1 (configuration not stated) | – | – | Not Active | Not Active
9 | COc1ccc(C2CC(c3ccccc3O)=Nc3ccccc3S2)cc1 (configuration not stated) | – | – | Not Active | Not Active
10 | Cc1ccc(C2CC(c3ccccc3O)=Nc3ccccc3S2)cc1 (configuration not stated) | – | – | Not Active | Not Active
11 | Oc1ccccc1C1=Nc2ccccc2SC(c2ccc3c(c2)OCO3)C1 (configuration not stated) | – | – | Not Active | Not Active
12 | Oc1cccc(C2=Nc3ccccc3SC(c3ccccc3)C2)c1 (configuration not stated) | 142 | 40 | – | –
13 | COc1ccccc1C1CC(c2cccc(O)c2)=Nc2ccccc2S1 (configuration not stated) | – | – | – | Not Active
14 | COc1ccc(C2CC(c3cccc(O)c3)=Nc3ccccc3S2)cc1OC (configuration not stated) | – | – | – | Not Active
15 | O=[N+]([O-])c1ccc(C2CC(c3cccc(O)c3)=Nc3ccccc3S2)cc1 (configuration not stated) | – | – | Not Active | Not Active
16 | Cc1ccc(C2CC(c3cccc(O)c3)=Nc3ccccc3S2)cc1 (configuration not stated) | – | 49.8 | – | –
17 | Oc1cccc(C2=Nc3ccccc3SC(c3cccnc3)C2)c1 (configuration not stated) | – | – | Not Active | Not Active
18 | Oc1cccc(C2=Nc3ccccc3SC(c3cccs3)C2)c1 (configuration not stated) | – | 5.9 | – | –
19 | Oc1cccc(C2=Nc3ccccc3SC(c3ccc(Cl)cc3)C2)c1 (configuration not stated) | 76.9 | 18.8 | – | –
20 | CN(C)c1ccc(C2CC(c3cccc(O)c3)=Nc3ccccc3S2)cc1 (configuration not stated) | – | – | – | Not Active
21 | Oc1cccc(C2=Nc3ccccc3SC(c3cccc(O)c3)C2)c1 (configuration not stated) | – | 71.1 | – | –
22 | Oc1cccc(C2=Nc3ccccc3SC(c3ccccc3Cl)C2)c1 (configuration not stated) | – | – | Not Active | Not Active
23 | O=[N+]([O-])c1cccc(C2CC(c3cccc(O)c3)=Nc3ccccc3S2)c1 (configuration not stated) | – | – | Not Active | Not Active
24 | Oc1cccc(C2=Nc3ccccc3SC(c3cccc(Cl)c3)C2)c1 (configuration not stated) | – | – | – | Not Active
25 | Oc1cccc(C2=Nc3ccccc3SC(c3ccccc3F)C2)c1 (configuration not stated) | – | 70.6 | Not Active | –
26 | Oc1ccc(C2CC(c3cccc(O)c3)=Nc3ccccc3S2)cc1 (configuration not stated) | – | – | Not Active | Not Active
27 | COc1cc(C2CC(c3cccc(O)c3)=Nc3ccccc3S2)ccc1O (configuration not stated) | – | – | Not Active | Not Active
